{
  "source": "paper PMC3646888",
  "about": "(PLoS ONE, 2013)",
  "assay_type_in_all_cases": "in vitro ADME",
  "key": {"CYP2C6": {"target": "T1, CYP2C6 (Rattus norvegicus, UniProt P05178)", "T1 sequence (P05178 1-490)": "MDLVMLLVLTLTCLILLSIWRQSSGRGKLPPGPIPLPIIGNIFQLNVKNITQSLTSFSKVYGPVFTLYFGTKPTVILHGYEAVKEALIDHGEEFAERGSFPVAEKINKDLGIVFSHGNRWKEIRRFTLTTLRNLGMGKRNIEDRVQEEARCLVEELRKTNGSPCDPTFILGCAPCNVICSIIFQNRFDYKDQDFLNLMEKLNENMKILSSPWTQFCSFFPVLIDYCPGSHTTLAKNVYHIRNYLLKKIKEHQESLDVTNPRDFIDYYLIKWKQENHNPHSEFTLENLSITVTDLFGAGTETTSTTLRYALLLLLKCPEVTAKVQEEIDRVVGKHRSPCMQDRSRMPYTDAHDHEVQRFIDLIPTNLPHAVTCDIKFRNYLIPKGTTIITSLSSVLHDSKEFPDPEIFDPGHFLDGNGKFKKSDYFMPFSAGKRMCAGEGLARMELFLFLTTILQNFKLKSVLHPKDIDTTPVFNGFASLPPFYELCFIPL", "assay": "Fluorescence-based CYP assay, recombinant CYP2C6, substrate EFC", "method": "(§1) These assays were performed by methods similar to those described by VanAlstine and Hough, Stresser et al., Wulff et al., Henderson et al., and Crespi et al., with minor modifications. All incubations were performed in a final volume of 200 µL of 50 mM potassium phosphate buffer at pH 7.4 containing 1% acetonitrile. CYP inhibitor studies were performed according to the parameters of Table 1. Substrate concentrations were chosen to be near known Km values. As described in the references cited, two different NADPH regenerating systems were used depending on the substrates used (Table 1). Inhibitors were added to either “low” NADPH-regenerating system (final concentration of 8.1 µM NADP^+, 0.4 mM glucose-6-phosphate, 0.4 mM magnesium chloride, 0.2 U/mL glucose-6-phosphate dehydrogenase) or to “high” NADPH-regenerating system (final concentration of 1.3 mM NADP^+, 3.3 mM glucose-6-phosphate, 3.3 mM magnesium chloride, 0.4 U/mL glucose-6-phosphate dehydrogenase) in a total of 0.1 mL buffer. […] For assays utilizing “low” regenerating systems, product formation was monitored continuously by a Victor3 1420 Multilabel Plate Counter at the designated wavelengths (Table 1). […] Product formation was then measured at the designated wavelengths (Table 1). […]"}, "CYP1A2r": {"target": "T2, CYP1A2r (Rattus norvegicus, UniProt P04799)", "T2 sequence (P04799 1-513)": "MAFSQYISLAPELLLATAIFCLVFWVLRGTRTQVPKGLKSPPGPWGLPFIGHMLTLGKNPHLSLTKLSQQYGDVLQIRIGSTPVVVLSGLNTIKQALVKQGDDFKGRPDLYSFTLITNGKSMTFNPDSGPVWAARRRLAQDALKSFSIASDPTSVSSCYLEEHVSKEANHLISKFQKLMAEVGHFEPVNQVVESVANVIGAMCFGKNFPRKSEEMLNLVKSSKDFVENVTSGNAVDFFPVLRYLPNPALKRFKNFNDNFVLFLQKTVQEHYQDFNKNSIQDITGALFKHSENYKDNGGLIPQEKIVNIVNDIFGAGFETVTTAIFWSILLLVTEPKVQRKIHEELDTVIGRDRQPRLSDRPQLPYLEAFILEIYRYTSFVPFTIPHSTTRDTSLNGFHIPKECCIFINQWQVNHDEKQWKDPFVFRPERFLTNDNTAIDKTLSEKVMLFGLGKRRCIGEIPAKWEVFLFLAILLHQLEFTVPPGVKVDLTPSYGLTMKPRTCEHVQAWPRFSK", "assay": "Fluorescence-based CYP assay, recombinant CYP1A2r, substrate EFC", "method": "These assays were performed by methods similar to those described by VanAlstine and Hough, Stresser et al., Wulff et al., Henderson et al., and Crespi et al., with minor modifications. All incubations were performed in a final volume of 200 µL of 50 mM potassium phosphate buffer at pH 7.4 containing 1% acetonitrile. CYP inhibitor studies were performed according to the parameters of Table 1. Substrate concentrations were chosen to be near known Km values. As described in the references cited, two different NADPH regenerating systems were used depending on the substrates used (Table 1). […] Samples were pre-incubated at 37°C for the designated times, and the reactions were initiated with the addition of a substrate and enzyme mixtures (Table 1). […] For the assays utilizing the “high” regenerating system, enzyme reactions were terminated at the designated time by the addition of 75 µL of 2N NaOH, followed by a 2 h post-incubation at 37°C. Product formation was then measured at the designated wavelengths (Table 1). For the “low” regenerating system assays, blanks and standards were prepared in 0.1 mL buffer without the regenerating system. For the “high” regenerating system assays, blanks and standards containing 0.1 mL of buffer received 75 µL of 2N NaOH following pre-incubation."}, "CYP2C19": {"target": "CYP2C19 (Homo sapiens, UniProt P33261)", "sequence (P33261 whole entry)": "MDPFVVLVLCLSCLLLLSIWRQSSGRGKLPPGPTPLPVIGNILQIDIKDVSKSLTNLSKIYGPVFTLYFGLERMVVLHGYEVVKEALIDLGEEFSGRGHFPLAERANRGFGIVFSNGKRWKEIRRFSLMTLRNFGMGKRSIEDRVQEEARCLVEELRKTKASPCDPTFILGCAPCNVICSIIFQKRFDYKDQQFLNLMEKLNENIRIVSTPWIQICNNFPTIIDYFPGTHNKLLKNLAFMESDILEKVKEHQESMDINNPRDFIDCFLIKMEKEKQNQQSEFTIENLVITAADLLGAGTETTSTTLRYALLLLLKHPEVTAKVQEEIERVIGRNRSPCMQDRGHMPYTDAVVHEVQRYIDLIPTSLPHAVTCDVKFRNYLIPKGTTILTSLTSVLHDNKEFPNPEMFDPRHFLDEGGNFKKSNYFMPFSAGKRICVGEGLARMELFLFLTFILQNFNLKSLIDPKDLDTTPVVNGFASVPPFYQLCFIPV", "assay": "Fluorescence-based CYP assay, recombinant CYP2C19, substrate DBF", "method": "as §1"}, "CYP2B6": {"target": "T3, CYP2B6 (Homo sapiens, UniProt P20813)", "T3 sequence (P20813 1-491)": "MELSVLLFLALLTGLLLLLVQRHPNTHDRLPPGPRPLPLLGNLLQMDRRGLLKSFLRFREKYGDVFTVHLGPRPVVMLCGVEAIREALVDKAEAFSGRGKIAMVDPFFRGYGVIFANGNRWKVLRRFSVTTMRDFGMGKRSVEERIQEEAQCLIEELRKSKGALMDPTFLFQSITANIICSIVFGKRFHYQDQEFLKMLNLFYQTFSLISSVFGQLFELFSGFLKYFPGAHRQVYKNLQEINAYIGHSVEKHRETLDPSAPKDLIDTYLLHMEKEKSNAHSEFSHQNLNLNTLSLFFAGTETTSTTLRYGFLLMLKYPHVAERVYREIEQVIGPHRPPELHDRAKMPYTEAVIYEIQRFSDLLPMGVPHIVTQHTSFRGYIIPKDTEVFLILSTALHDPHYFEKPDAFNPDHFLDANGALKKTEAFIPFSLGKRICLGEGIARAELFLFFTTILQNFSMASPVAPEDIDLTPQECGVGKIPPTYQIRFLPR", "assay": "Fluorescence-based CYP assay, recombinant CYP2B6, substrate EFC", "method": "as §1"}},
  "note": "“Also recorded” adds a separate entry of the source.",
  "data": [
    {"molecule": "Clc1ccccc1C(c1ccccc1)(c1ccccc1)n1ccnc1", "note": "[Clotrimazole]", "values": [
      {"measurement": "Inhibition of CYP2C6 (in words)", "setting": "CYP2C6; positive control", "result": "potent inhibitor"},
      {"measurement": "Inhibition of CYP1A2r (in words)", "setting": "CYP1A2r; clotrimazole concentration-response, Fig. 1C", "result": "only partly inhibited"},
      {"measurement": "Inhibition of CYP2C19 (in words)", "setting": "CYP2C19; recombinant enzyme", "result": "potent inhibitor"},
      {"measurement": "Inhibition of CYP2B6 (in words)", "setting": "CYP2B6; positive control", "result": "potent inhibitor"}
    ]},
    {"molecule": "Clc1ccccc1C(c1ccccc1)(c1ccccc1)n1cccn1", "note": "[TRAM-34, 1-[(2-chlorophenyl)diphenylmethyl]-1H-pyrazole]", "values": [
      {"measurement": "IC50", "setting": "CYP2C6; recombinant rat CYP2C6, EFC 5 µM", "result": 2900, "unit": "nM"},
      {"measurement": "IC50", "setting": "CYP1A2r", "result": "> 80000", "unit": "nM"},
      {"measurement": "Inhibition of CYP1A2r (in words)", "setting": "CYP1A2r; concentrations up to 80 µM", "result": "no inhibition; also recorded: no inhibitory effects"},
      {"measurement": "IC50", "setting": "CYP2C19", "result": 1800, "unit": "nM"},
      {"measurement": "IC50", "setting": "CYP2B6", "result": 900, "unit": "nM"}
    ]}
  ]
}
